According to patent publication US8017612B2, “Piperazine compound and use thereof as a HCV polymerase inhibitor” (priority 2006, dated 2011):

Legend:
[1] = target: T1, HCV polymerase (NS5B) type 1a (Hepatitis C virus genotype 1a, UniProt P26664); test: Assay of enzyme (HCV polymerase) inhibitory activity, type 1a enzyme; type: biochemical, HCV type 1a (cloned from the blood of patients)
T1 construct: made in house; host or cells: Escherichia coli (by the 'similar method' of the 1b enzyme)
Procedure, shortened: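 Reactions ran 60 min at 25° C in 20 mM Tris-HCl pH 7.5, 5 mM MgCl2, 50 mM NaCl, holding genotype 1a NS5B (1.5 μg/ml, Δ47 C-terminus, 6His), substrate RNA 5 μg/ml, UTP 2 μM with tritiated UTP and other NTPs 50 μM. IC50 derived from incorporated radiolabel in filter-trapped RNA relative to uninhibited reaction.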

[2] = target: T2, HCV polymerase (NS5B) type 1b (Hepatitis C virus genotype 1b, UniProt P26663); test: Assay of enzyme (HCV polymerase) inhibitory activity, type 1b enzyme; type: biochemical, HCV BK strain (type 1b)
T2 construct: a region encoding NS5B (J Virol 1991 March, 65(3), 1105-13, 544 amino acids after deletion of 47 amino acids on the C-terminal); 6xHis (C); made in house; host or cells: Escherichia coli
Procedure, shortened: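 IC50 derived from [3H]UTP incorporation into TCA-insoluble RNA, compared with and without test compound. Reaction (25 °C, 60 min, Tris pH 7.5, 5 mM MgCl2): E. coli-expressed 1b NS5B Δ47 with His tag at 0.5 μg/ml, 5 μg/ml run-off substrate RNA, ATP/GTP/CTP 50 μM, UTP 2 μM.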

[3] = HCV polymerase inhibitory activity IC50, 1a, type 1a enzyme
[4] = HCV polymerase inhibitory activity IC50, 1b, type 1b enzyme
[5] = HCV polymerase inhibitory activity (IC50), 1a, type 1a enzyme 1.5 μg/ml, 25° C., 60 min
[6] = HCV polymerase inhibitory activity (IC50), 1b, type 1b enzyme 0.5 μg/ml, 25° C., 60 min

| Structure (SMILES) | IC50 [1, 3] [nM] | IC50 [2, 4] [nM] | IC50 [1, 5] [nM] | IC50 [2, 6] [nM] |
| --- | --- | --- | --- | --- |
| O=C(NCc1ccc(OC(F)(F)F)cc1)[C@H]1CN(c2nc3cn[nH]c(=O)c3s2)CCN1S(=O)(=O)c1ccc(Br)cc1 [Example 881, (R)-1-(4-bromo-benzenesulfonyl)-4-(7-oxo-6,7-dihydro-thiazolo[4,5-d]pyridazin-2-yl)-piperazine-2-carboxylic acid 4-trifluoromethoxy-benzylamide] | < 100 | < 100 |  |  |
| CC(=O)N1CCN(S(=O)(=O)c2ccc(C(C)C)cc2)[C@@H](C(=O)NCc2ccc(C(C)(F)F)cc2)C1 [Example 293, (R)-4-acetyl-1-(4-isopropyl-benzenesulfonyl)-piperazine-2-carboxylic acid 4-(1,1-difluoro-ethyl)-benzylamide] |  |  | 100 to 1000 | 100 to 1000 |
| O=C(NCc1ccc(OC(F)(F)F)cc1)[C@H]1CN(c2nc3nc(CCO)ncc3s2)CCN1S(=O)(=O)c1ccc(OC(F)(F)F)cc1 [Example 1098, (R)-4-[5-(2-hydroxy-ethyl)-thiazolo[4,5-d]pyrimidin-2-yl]-1-(4-trifluoromethoxy-benzenesulfonyl)-piperazine-2-carboxylic acid 4-trifluoromethoxy-benzylamide] | < 100 | < 100 |  |  |
| CC(=O)N1CCN(S(=O)(=O)c2ccc3c(c2)N(C)CCC3)[C@@H](C(=O)NCc2ccc(C(C)C)cc2)C1 [Example 307, (R)-4-acetyl-1-(1-methyl-1,2,3,4-tetrahydro-quinoline-7-sulfonyl)-piperazine-2-carboxylic acid 4-isopropyl-benzylamide] |  |  | 100 to 1000 | < 100 |
| CCOC(=O)Cn1nnc(CC(=O)N2CCN(S(=O)(=O)c3ccc(OC(F)(F)F)cc3)[C@@H](C(=O)NCc3ccc(C(F)(F)CC)cc3)C2)n1 [Example 532, (5-{2-[(R)-3-[4-(1,1-difluoro-propyl)-benzylcarbamoyl]-4-(4-trifluoromethoxy-benzenesulfonyl)-piperazin-1-yl]-2-oxo-ethyl}-tetrazol-2-yl)-acetic acid ethyl ester] |  |  | < 100 | < 100 |
| CC(=O)N1CCN(S(=O)(=O)c2ccc(-c3cc(C(F)(F)F)on3)s2)C(C(=O)NCc2ccc(C(F)(F)F)cc2)C1 (stereo not shown) [Example 43, 4-acetyl-1-[5-(5-trifluoromethyl-isoxazol-3-yl)-thiophene-2-sulfonyl]-piperazine-2-carboxylic acid 4-trifluoromethyl-benzylamide] |  |  | > 1000 | > 1000 |
| CCCc1ccc(S(=O)(=O)N2CCN(c3nc(C)c(C(=O)OC(C)(C)C)s3)C[C@@H]2C(=O)NCc2ccc(C(C)C)cc2C)cc1 [Example 330, 2-[(R)-3-(4-isopropyl-2-methyl-benzylcarbamoyl)-4-(4-propyl-benzenesulfonyl)-piperazin-1-yl]-4-methyl-thiazole-5-carboxylic acid tert-butyl ester] |  |  | > 1000 | 100 to 1000 |
| CCC(F)(F)c1ccc(CNC(=O)[C@H]2CN(C(=O)Cc3ccncc3)CCN2S(=O)(=O)c2ccc(OC(F)(F)F)cc2)cc1 [Example 508, (R)-4-(2-pyridin-4-yl-acetyl)-1-(4-trifluoromethoxy-benzenesulfonyl)-piperazine-2-carboxylic acid 4-(1,1-difluoro-propyl)-benzylamide] |  |  | < 100 | < 100 |
| CC(C)c1ccc(CNC(=O)[C@H]2CN(C(=O)CC#N)CCN2S(=O)(=O)c2ccc(C(F)(F)F)cc2)cc1 [Example 258, (R)-4-(2-cyano-acetyl)-1-(4-trifluoromethyl-benzenesulfonyl)-piperazine-2-carboxylic acid 4-isopropyl-benzylamide] |  |  | < 100 | < 100 |
| CCOC(=O)Cn1nnnc1CC(=O)N1CCN(S(=O)(=O)c2ccc(OC(F)(F)F)cc2)[C@@H](C(=O)NCc2ccc(C(F)(F)CC)cc2)C1 [Example 533, (5-{2-[(R)-3-[4-(1,1-difluoro-propyl)-benzylcarbamoyl]-4-(4-trifluoromethoxy-benzenesulfonyl)-piperazin-1-yl]-2-oxo-ethyl}-tetrazol-1-yl)-acetic acid ethyl ester] |  |  | > 1000 | > 1000 |
| O=C(NCc1ccc(OC(F)(F)F)cc1)[C@H]1CN(c2ccc3cnccc3n2)CCN1S(=O)(=O)c1ccc(OC(F)(F)F)cc1 [Example 771, (R)-4-[1,6]naphthyridin-2-yl-1-(4-trifluoromethoxy-benzenesulfonyl)-piperazine-2-carboxylic acid 4-trifluoromethoxy-benzylamide] | < 100 | < 100 |  |  |
| CC(=O)N1CCN(S(=O)(=O)c2ccc(CC(C)(C)C)cc2)[C@@H](C(=O)NCc2ccc(C(C)C)cc2)C1 [Example 237, (R)-4-acetyl-1-[4-(2,2-dimethyl-propyl)-benzenesulfonyl]-piperazine-2-carboxylic acid 4-isopropyl-benzylamide] |  |  | < 100 | < 100 |
| CC(C)c1ccc(CNC(=O)[C@H]2CN(C(=O)Nc3ccccc3)CCN2S(=O)(=O)c2ccc(C(F)(F)F)cc2)cc1 [Example 178, (R)-4-(4-trifluoromethyl-benzenesulfonyl)-piperazine-1,3-dicarboxylic acid 3-(4-isopropyl-benzylamide) 1-phenylamide] |  |  | 100 to 1000 | 100 to 1000 |
| CCC(F)(F)c1ccc(CNC(=O)[C@H]2CN(c3cnc(-c4nnn[nH]4)cn3)CCN2S(=O)(=O)c2ccc(OC(F)(F)F)cc2)cc1 [Example 592, (R)-5′-(1H-tetrazol-5-yl)-4-(4-trifluoromethoxy-benzenesulfonyl)-3,4,5,6-tetrahydro-2H-[1,2′]bipyrazinyl-3-carboxylic acid 4-(1,1-difluoro-propyl)-benzylamide] |  |  | < 100 | < 100 |
| COc1ccc(S(=O)(=O)N2CCN(C(C)=O)C[C@@H]2C(=O)NCc2ccc(C(C)C)cc2)cc1-c1nn[nH]n1 [Example 288, (R)-4-acetyl-1-[4-methoxy-3-(2H-tetrazol-5-yl)-benzenesulfonyl]-piperazine-2-carboxylic acid 4-isopropyl-benzylamide] |  |  | 100 to 1000 | 100 to 1000 |
| NC(=O)CCc1cncc2ncc(N3CCN(S(=O)(=O)c4ccc(OC(F)(F)F)cc4)[C@@H](C(=O)NCc4ccc(OC(F)(F)F)cc4)C3)nc12 [Example 810, (R)-4-[8-(2-carbamoyl-ethyl)-pyrido[3,4-b]pyrazin-2-yl]-1-(4-trifluoromethoxy-benzenesulfonyl)-piperazine-2-carboxylic acid 4-trifluoromethoxy-benzylamide] | < 100 | < 100 |  |  |
| CC(C)c1ccc(CNC(=O)[C@H]2CN(c3n[nH]c(C(=O)O)c3Cl)CCN2S(=O)(=O)c2ccc(C(F)(F)F)cc2)cc1 [Example 427, 4-chloro-5-[(R)-3-(4-isopropyl-benzylcarbamoyl)-4-(4-trifluoromethyl-benzenesulfonyl)-piperazin-1-yl]-2H-pyrazole-3-carboxylic acid] |  |  | > 1000 | > 1000 |
| CC(=O)N1CCN(S(=O)(=O)c2ccc(Br)cc2F)[C@@H](C(=O)NCc2ccc(C(C)C)cc2)C1 [Example 419, (R)-4-acetyl-1-(4-bromo-2-fluoro-benzenesulfonyl)-piperazine-2-carboxylic acid 4-isopropyl-benzylamide] |  |  | 100 to 1000 | 100 to 1000 |
| O=C(NCc1ccc(OC(F)(F)F)cc1)[C@H]1CN(c2nc3c(=O)[nH]ncc3s2)CCN1S(=O)(=O)c1ccc(OC(F)(F)F)cc1 [Example 937, (R)-4-(4-oxo-4,5-dihydro-thiazolo[4,5-d]pyridazin-2-yl)-1-(4-trifluoromethoxy-benzenesulfonyl)-piperazine-2-carboxylic acid 4-trifluoromethoxy-benzylamide] | < 100 | < 100 |  |  |
| CCN(CC)c1nc2nc(Cl)nc(N3CCN(S(=O)(=O)c4ccc(OC(F)(F)F)cc4)[C@@H](C(=O)NCc4ccc(OC(F)(F)F)cc4)C3)c2s1 [Example 993, (R)-4-(5-chloro-2-diethylamino-thiazolo[4,5-d]pyrimidin-7-yl)-1-(4-trifluoromethoxy-benzenesulfonyl)-piperazine-2-carboxylic acid 4-trifluoromethoxy-benzylamide] | > 1000 | > 1000 |  |  |
| CC(C)c1ccc(CNC(=O)[C@H]2CN(c3nc(N)n[nH]3)CCN2S(=O)(=O)c2ccc(C(F)(F)F)cc2)cc1 [Example 368, (R)-4-(5-amino-2H-[1,2,4]triazol-3-yl)-1-(4-trifluoromethyl-benzenesulfonyl)-piperazine-2-carboxylic acid 4-isopropyl-benzylamide] |  |  | > 1000 | 100 to 1000 |
| CCCc1ccc(CNC(=O)[C@H]2CN(c3nc4c(C(=O)O)cccc4s3)CCN2S(=O)(=O)c2ccc(CC)cc2)cc1 [Example 818, 2-[(R)-4-(4-ethyl-benzenesulfonyl)-3-(4-propyl-benzylcarbamoyl)-piperazin-1-yl]-benzothiazole-4-carboxylic acid] | < 100 | < 100 |  |  |
| COc1ccc(S(=O)(=O)N2CCN(C(C)=O)CC2C(=O)NCc2ccc(C(F)(F)F)cc2)cc1 (stereo not shown) [Example 44, 4-acetyl-1-(4-methoxy-benzenesulfonyl)-piperazine-2-carboxylic acid 4-trifluoromethyl-benzylamide] |  |  | > 1000 | > 1000 |
